Results on 16 compounds are retold here after paper PMC8010219, “Molecular basis for the interaction of cellular retinol binding protein 2 (CRBP2) with nonretinoid ligands” (Journal of Lipid Research, 2021).

Structures are written as SMILES. Residue numbers refer to the chain shown, from its start. Read-outs that look alike come from different tables or passages of the source.

Assay [1] has as its target T1, CRBP2^T51I/V62M (Homo sapiens, UniProt P50120, T52I/V63M).
T1 construct: made in house; host or cells: Escherichia coli BL21(DE3)
T1 sequence (P50120 1-134 T52I/V63M): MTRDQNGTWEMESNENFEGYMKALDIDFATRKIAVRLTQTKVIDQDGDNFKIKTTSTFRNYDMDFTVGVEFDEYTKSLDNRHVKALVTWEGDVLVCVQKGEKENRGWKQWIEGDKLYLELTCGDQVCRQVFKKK
The assay can be described thus: Chromophore (atROL) replacement fluorescence titration of the mutant protein. The assay is classed as binding. From the text: To introduce substitute mutations T51/I and V62/M, cDNA of CRBP2 was cloned into pCR 2.1 vector (Thermo Fisher Scientific). The mutations were introduced by PCR using 5’ phosphorylated primers of the following sequences: T51/I: forward, […]; reverse, […]; V62/M: forward, […]; reverse, […]. The presence of desired substitutions was verified by sequencing. To obtain mutated proteins, their cDNAs harboring these changes were cloned into pET3b vector and expressed and purified as described above.
The chromophore replacement assay was performed as described by Silvaroli et al. ([12]). CRBP2 in complex with atROL was excited with photons at a wavelength of 285 nm. Fluorescence emission was monitored at 350 and 480 nm. Titration with an alternative ligand causes liberation of atROL from the binding pocket and lack of fluorescence resonance energy transfer between the tryptophan residues and the retinoid moiety. The net effect is decrease in the fluorescence signal at 480 nm and concomitant increase at 350 nm (Fig. 1A, B). The experiments were performed on PerkinElmer Life Science LS55 spectrofluorometer at 25°C, using a 1 cm quart cuvette. Three microliters of buffer, 67 mM phosphate-buffered saline (pH 7.4%), 5% glycerol (v/v) containing 1 μg/ml of CRBP2 were dispensed into the cuvette. […] The obtained fluorescence spectra corrected for the background. […]

Assay [2] deals with T2, human CRBP2 (Homo sapiens, UniProt P50120).
T2 construct: inferred from the Ni-NTA purification; made in house; host or cells: Escherichia coli BL21(DE3)
T2 sequence (P50120 1-134): T1 sequence (P50120 1-134 T52I/V63M) with I52T, M63V
On the set-up: method as in PMID 32195347. Particulars: holo-CRBP2 titrated with ligand, cited from earlier work.

Assay [3] addresses T2, human CRBP2. Nature of the assay: Chromophore (atROL) replacement fluorescence titration of holo-CRBP2. The assay is classed as binding. To be noted: for Kd: holo-CRBP2 titrated with ligand, 25°C, pH 7.4, average of at least three independent titrations, mean ± SD; for fold decrease in affinity (increase in Kd) as compared with 2-AG: ratio of Kd values versus 2-AG. The method, then: The chromophore replacement assay was performed as described by Silvaroli et al. ([12]). CRBP2 in complex with atROL was excited with photons at a wavelength of 285 nm. Fluorescence emission was monitored at 350 and 480 nm. Titration with an alternative ligand causes liberation of atROL from the binding pocket and lack of fluorescence resonance energy transfer between the tryptophan residues and the retinoid moiety. The net effect is decrease in the fluorescence signal at 480 nm and concomitant increase at 350 nm (Fig. 1A, B). The experiments were performed on PerkinElmer Life Science LS55 spectrofluorometer at 25°C, using a 1 cm quart cuvette. Three microliters of buffer, 67 mM phosphate-buffered saline (pH 7.4%), 5% glycerol (v/v) containing 1 μg/ml of CRBP2 were dispensed into the cuvette. Increasing concentrations of tested compounds were delivered in acetonitrile. […] The obtained fluorescence spectra corrected for the background. Analysis of the changes in the maximum emission values at the different concentrations of ligands was used to calculate Kd values using the saturation single ligand binding model (SigmaPlot 11 software package; Systat Software). Each Kd listed in Table 1 represents an average value obtained from at least three independent titrations.

In assay [4] the target is T2, human CRBP2. The assay can be described thus: X-ray crystal structures of CRBP2 in complex with ligands (enantiomer seen in binding pocket). To be noted: racemic mixture used for crystallization. The method, then: The crystallization conditions were identical to those published by Lee et al. ([9]). Human CRBP2 in complexes with nonretinoid ligands were crystallized using the sitting drop vapor diffusion method. Prior to setting up crystallization drops, CRBP2 (9 mg/ml) was incubated with 50 μM of ligand in 10 mM Tris-HCl (pH 8.0) and 150 mM NaCl for 20 min on ice. Protein samples were mixed in a 1:1 ratio with 1 μl of 0.1 M Tris-HCl (pH 8%) and 22–28% polyethylene glycol 3350. The wells were sealed and stored at room temperature. Crystals were collected, cryoprotected in 10% glycerol, 10% polyethylene glycol 2000 (v/v), and flash frozen in liquid nitrogen.
X-ray diffraction data were collected at the Advanced Photon Source Northeastern Collaborative Access Team 24-ID-C and 24-ID-E beamlines. Data reduction was performed using iMosflm software package ([17]). The structures were solved by molecular replacement with PHASER_MR ([18]) and the refined model of CRBP2 [Protein Data Bank (PDB) accession code: 6BTI] as a search model. Adjustments to the protein model were made with COOT ([19]), and the initial model was refined with PHENIX ([20]). […] The coordinates and structure factors for each of the structure analyzed in this report were deposited in the PDB under the following accession codes: 7JVG, 7JVY, 7JWD, 7JWR, 7K3I, 7JX2, and 7JZ5 (Table 2).

Assay [5] deals with CRBP1. The arrangement: method as in PMID 27830500. To be noted: atROL binding to CRBP1; cited from earlier work.

Regarding `CCCCC/C=C\C/C=C\C/C=C\C/C=C\CCCC(=O)OC(CO)CO` [2-AG, 2-Arachidonoyl glycerol], the Kd (commonly the equilibrium constant for the complex coming apart) in assay [1] (CRBP2 T51I/V62M double mutant) is 447 ± 46.1 nM; in assay [2], 27.1 ± 2.5 nM. Moreover, the “fold decrease in the affinity at the mutant” value in assay [1] (CRBP2^T51I/V62M versus WT CRBP2) was “over 16 fold”.

For `CCCCC/C=C\C/C=C\CCCCCCCC(=O)OC(CO)CO` [2-LG, 2-Linoleoyl glycerol], the Kd in assay [2] (read-out: Kd) was 40 ± 4.4 nM.

Take `CCCCCCCCCC(=O)OCC(O)CO` (stereo not drawn) [1-DG, 1-Decanoyl glycerol]: in assay [3], the affinity, expressed as Kd, was 780 ± 86.5 nM and the “fold decrease in affinity (increase in Kd) as compared with 2-AG” value is given as 29 fold. Regarding `CCCCC/C=C\C/C=C\C/C=C\C/C=C\CCCC(=O)OCC(O)CO` (stereo not drawn) [1-AG, 1-Arachidonoyl glycerol], in assay [4], the “enantiomer exclusively present in the binding pocket (electron density)” value is on record as “S-enantiomer”. The Kd in assay [2] was 37.9 ± 3.3 nM. For the compound `CCCCCCCCCCCC(=O)OC(CO)CO` [2-LaG, 2-Lauroyl glycerol], in assay [3], the Kd came out at 172 ± 8.8 nM and the “fold decrease in affinity (increase in Kd) as compared with 2-AG” value was “over 6 fold”. With `CCCCCCCCCCCCCCCCCCCC(=O)OCC(O)CO` (stereo not drawn) [1-ArG, 1-Arachidoyl glycerol], in assay [3], the Kd is 133 ± 33.1 nM and the “fold decrease in affinity (increase in Kd) as compared with 2-AG” value is listed as approximately 5 fold. In assay [3], `CCCCCCCCCCCCCCCC(=O)OC(CO)CO` [2-PG, 2-Palmitoyl glycerol] returned a dissociation constant Kd of 51.2 ± 7.7 nM. For the compound `CC1=C(/C=C/C(C)=C/C=C/C(C)=C/CO)C(C)(C)CCC1` [atROL, all-trans-retinol], the Kd in assay [5] is approximately 10 nM. `CCCCCCCCCCCCCCCCCC(=O)OC(CO)CO` [2-SG, 2-Stearoyl glycerol]: in assay [3], the Kd was 54.8 ± 9.8 nM and the “fold decrease in affinity (increase in Kd) as compared with 2-AG” value amounted to 2 fold. As to `CCCCC/C=C\C/C=C\C/C=C\C/C=C\CCCC(=O)NCCO` [AEA, Arachidonoyl ethanolamide], the Kd in assay [2] (read-out: Kd) is 663 ± 24 nM. For the same compound, the “fold decrease in affinity (increase in Kd) as compared with 2-AG” value in assay [3] is approximately 25 fold.

In turn, `CCCCC/C=C\C/C=C\CCCCCCCC(=O)OCC(O)CO` (stereo not drawn) [1-LG, 1-Linoleoyl glycerol] returned a Kd in assay [3] of 97.1 ± 27.6 nM. Same read-out and setting: then `CCCCCCCCCCCCCCCCOCC(O)CO` (stereo not drawn) [1-O-HG, 1-O-hexadecyl glycerol], with 153 ± 7.3 nM. As for `CCCCCCCC/C=C\CCCCCCCC(=O)OC(CO)CO` [2-OG, 2-Oleoyl glycerol], in assay [2] (read-out: Kd), the Kd was 65.4 ± 4.4 nM.

Turning to `CCCCC/C=C\C/C=C\C/C=C\C/C=C\CCCCCC(=O)O` [ADA, Docosatetraenoic acid], in assay [3], the Kd was found to be 217 ± 14.4 nM and the “fold decrease in affinity (increase in Kd) as compared with 2-AG” value is on record as “eight times higher”. The compound `CCCCC/C=C\C/C=C\C/C=C\C/C=C\CCCCOC(CO)CO` [2-AGE, 2-Arachidonoyl glycerol ether] returned an equilibrium dissociation constant (Kd) in assay [3] of 45.7 ± 2.7 nM. As for `CCCCC/C=C\C/C=C\C/C=C\C/C=C\CCCC(=O)SCC(O)CO` (stereo not drawn) [1-ASG, Arachidonoyl-1-thio-glycerol], in assay [4], the “enantiomer exclusively present in the binding pocket (electron density)” value is recorded as “R-enantiomer”. The “fold increase of the Kd value on substitution of the ester group with a thioester bond” value in assay [3] (as compared with 1-AG) is reported as approximately 2 fold. The compound further returned a dissociation constant (Kd) in assay [3] of 89.3 ± 14.3 nM.
